From patent publication US11419913B2, “Pharmaceutical compositions for inhibiting inflammatory cytokines” (S.I.S. SHULOV INNOVATIVE SCIENCE LTD., priority 2018, dated 2022)
Where a SMILES comes first, the peptide text is derived from it. [ ]: non-standard residue; d: D form. The star is where a group is joined. pGlu = O=C1CC[C@@H](C(=O)O)N1; Octanoyl = CCCCCCCC(=O)*

System: IFNγ
Test: IFN-γ production in LPS-stimulated human PBMCs
Type: cell-based
Conditions: ZEP3 40, 100 and 150 μg/ml, 1 hr pre-treatment, LPS 24 hours; 4 donors (FIG. 9)
Procedure: The effect of the peptide ZEP3 (SEQ ID NO: 1) on cytokine production was evaluated in an in vitro human model of inflammation. Human Peripheral Blood Mononuclear Cells (PBMCs) were stimulated using Lipopolysaccharide (LPS) to produce cytokines.
Method: Briefly, cryopreserved human PBMCs of four healthy non-smokers, not on any corticosteroids or other inflammatory drugs, were grown in RPMI 1640 with 10% heat inactivated fetal bovine serum (FBS), 100 U/ml penicillin and 100 μg/mL streptomycin (complete growth medium, CGM).
Human PBMCs were thawed and plated for all groups (1-6, Table 7), and rested for 1 hour before treatment. […] 24 hours post LPS addition, Almar Blue fluorescent at 585 nm (correlating with cell viability), is measured and supernatant is collected for cytokine determination. […]
Detailed method: cells were thawed according to manufacturer's instructions, washed in CGM and assessed for viability using trypan blue staining. […] At 24 hours post LPS stimulation, plates were read for assessment of cell viability and cell culture supernatants were harvested and stored at −80° C. for cytokine analysis. […] Cytokine production and percentage of sample stimulation vs. the average of the stimulation control were calculated.

Compound: CCCCCCCC(=O)NCCCC[C@H](NC(=O)[C@H](Cc1c[nH]c2ccccc12)NC(=O)[C@H](CC(N)=O)NC(=O)[C@@H]1CCC(=O)N1)C(=O)O [ZEP3, pGlu-Asn-Trp-Lys(Octanoyl)-OH] ([pGlu]NWK(Octanoyl)-OH)
- interferon gamma (IFNγ) production: significant reduction
